Assay in all cases: Kinase panel study
What all share (format): biochemical
What all share (details): read-out: Percentage of inhibition; for inhibition at 1 µM: 1000nM; for inhibition at 10 µM: 10000nM

In one test the target is T1, CAMK4 (CaMKIV) (Homo sapiens, UniProt Q16566).
T1 construct: purchased Thermo Fisher Scientific
An outline of the steps:
(§1)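 Kinase inhibition was determined by a contract provider in cell-free ZLyte or Adapta assays. Results are expressed as % inhibition at 10 or 1 µM.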

Another test deals with T2, CDC42 BPB (MRCKB) (Homo sapiens, UniProt Q9Y5S2).
T2 construct: purchased Thermo Fisher Scientific
In a few lines:
as §1

For another test, the target named is T3, EPHB4 (Homo sapiens, UniProt P54760).
T3 construct: purchased Thermo Fisher Scientific
T3 sequence (P54760 16-987): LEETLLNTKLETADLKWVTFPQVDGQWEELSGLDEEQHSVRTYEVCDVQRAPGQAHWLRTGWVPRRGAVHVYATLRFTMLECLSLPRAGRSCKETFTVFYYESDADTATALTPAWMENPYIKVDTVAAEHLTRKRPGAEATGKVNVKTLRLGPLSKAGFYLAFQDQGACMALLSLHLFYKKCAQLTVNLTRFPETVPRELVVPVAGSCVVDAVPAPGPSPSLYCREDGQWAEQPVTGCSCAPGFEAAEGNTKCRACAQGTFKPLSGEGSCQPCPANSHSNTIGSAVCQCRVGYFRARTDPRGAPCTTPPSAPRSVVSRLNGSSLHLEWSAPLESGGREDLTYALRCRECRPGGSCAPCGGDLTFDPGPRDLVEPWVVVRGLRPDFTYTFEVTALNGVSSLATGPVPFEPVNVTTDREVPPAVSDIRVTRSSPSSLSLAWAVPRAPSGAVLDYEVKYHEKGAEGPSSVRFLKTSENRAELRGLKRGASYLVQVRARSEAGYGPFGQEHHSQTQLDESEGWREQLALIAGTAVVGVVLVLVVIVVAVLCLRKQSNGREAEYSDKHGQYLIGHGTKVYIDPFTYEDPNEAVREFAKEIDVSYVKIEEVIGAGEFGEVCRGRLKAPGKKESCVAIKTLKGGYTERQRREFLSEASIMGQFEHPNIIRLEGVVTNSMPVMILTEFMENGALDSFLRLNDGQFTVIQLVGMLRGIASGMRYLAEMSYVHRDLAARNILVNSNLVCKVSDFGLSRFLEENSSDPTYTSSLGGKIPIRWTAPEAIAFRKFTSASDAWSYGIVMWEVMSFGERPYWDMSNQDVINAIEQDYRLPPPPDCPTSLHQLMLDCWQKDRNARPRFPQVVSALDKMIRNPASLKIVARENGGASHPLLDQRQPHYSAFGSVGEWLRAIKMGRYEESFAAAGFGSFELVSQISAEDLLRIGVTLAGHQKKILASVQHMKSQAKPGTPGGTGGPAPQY
An outline of the steps: as §1

Another test deals with T4, FGFR3 K650E (Homo sapiens, UniProt P22607, K650E).
T4 construct: purchased Thermo Fisher Scientific
In a few lines:
as §1

For a further test, the target named is T5, MAP4K4 (HGK) (Homo sapiens, UniProt O95819).
T5 construct: purchased Thermo Fisher Scientific
An outline of the steps:
as §1

Another test has as its target T6, MAPKAPK2 (Homo sapiens, UniProt P49137).
T6 construct: purchased Thermo Fisher Scientific
In a few lines:
as §1

The target in a further test is T7, PKN1 (PRK1) (Homo sapiens, UniProt Q16512).
T7 construct: purchased Thermo Fisher Scientific
An outline of the steps:
as §1

The next test addresses T8, ZAP70 (Homo sapiens, UniProt P43403).
T8 construct: purchased Thermo Fisher Scientific
T8 sequence (P43403 1-619): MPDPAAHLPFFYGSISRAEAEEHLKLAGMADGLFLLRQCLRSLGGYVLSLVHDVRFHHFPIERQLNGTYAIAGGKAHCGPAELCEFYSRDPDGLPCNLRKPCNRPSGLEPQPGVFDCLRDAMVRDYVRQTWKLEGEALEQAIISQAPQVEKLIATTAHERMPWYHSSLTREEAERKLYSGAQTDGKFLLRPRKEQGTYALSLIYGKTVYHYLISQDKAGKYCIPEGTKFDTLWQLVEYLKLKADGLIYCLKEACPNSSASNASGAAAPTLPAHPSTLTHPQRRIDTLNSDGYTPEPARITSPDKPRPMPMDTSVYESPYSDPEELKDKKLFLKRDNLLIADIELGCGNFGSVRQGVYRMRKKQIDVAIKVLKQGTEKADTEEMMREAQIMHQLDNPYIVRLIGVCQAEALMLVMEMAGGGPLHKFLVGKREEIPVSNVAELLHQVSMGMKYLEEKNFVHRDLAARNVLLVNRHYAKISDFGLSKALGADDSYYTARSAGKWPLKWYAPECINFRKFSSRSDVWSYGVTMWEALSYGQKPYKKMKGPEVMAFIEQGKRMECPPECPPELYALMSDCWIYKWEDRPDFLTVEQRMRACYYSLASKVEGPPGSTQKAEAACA
An outline of the steps:
as §1

Molecules are shown by their SMILES.

T2 sequence (Q9Y5S2 whole entry): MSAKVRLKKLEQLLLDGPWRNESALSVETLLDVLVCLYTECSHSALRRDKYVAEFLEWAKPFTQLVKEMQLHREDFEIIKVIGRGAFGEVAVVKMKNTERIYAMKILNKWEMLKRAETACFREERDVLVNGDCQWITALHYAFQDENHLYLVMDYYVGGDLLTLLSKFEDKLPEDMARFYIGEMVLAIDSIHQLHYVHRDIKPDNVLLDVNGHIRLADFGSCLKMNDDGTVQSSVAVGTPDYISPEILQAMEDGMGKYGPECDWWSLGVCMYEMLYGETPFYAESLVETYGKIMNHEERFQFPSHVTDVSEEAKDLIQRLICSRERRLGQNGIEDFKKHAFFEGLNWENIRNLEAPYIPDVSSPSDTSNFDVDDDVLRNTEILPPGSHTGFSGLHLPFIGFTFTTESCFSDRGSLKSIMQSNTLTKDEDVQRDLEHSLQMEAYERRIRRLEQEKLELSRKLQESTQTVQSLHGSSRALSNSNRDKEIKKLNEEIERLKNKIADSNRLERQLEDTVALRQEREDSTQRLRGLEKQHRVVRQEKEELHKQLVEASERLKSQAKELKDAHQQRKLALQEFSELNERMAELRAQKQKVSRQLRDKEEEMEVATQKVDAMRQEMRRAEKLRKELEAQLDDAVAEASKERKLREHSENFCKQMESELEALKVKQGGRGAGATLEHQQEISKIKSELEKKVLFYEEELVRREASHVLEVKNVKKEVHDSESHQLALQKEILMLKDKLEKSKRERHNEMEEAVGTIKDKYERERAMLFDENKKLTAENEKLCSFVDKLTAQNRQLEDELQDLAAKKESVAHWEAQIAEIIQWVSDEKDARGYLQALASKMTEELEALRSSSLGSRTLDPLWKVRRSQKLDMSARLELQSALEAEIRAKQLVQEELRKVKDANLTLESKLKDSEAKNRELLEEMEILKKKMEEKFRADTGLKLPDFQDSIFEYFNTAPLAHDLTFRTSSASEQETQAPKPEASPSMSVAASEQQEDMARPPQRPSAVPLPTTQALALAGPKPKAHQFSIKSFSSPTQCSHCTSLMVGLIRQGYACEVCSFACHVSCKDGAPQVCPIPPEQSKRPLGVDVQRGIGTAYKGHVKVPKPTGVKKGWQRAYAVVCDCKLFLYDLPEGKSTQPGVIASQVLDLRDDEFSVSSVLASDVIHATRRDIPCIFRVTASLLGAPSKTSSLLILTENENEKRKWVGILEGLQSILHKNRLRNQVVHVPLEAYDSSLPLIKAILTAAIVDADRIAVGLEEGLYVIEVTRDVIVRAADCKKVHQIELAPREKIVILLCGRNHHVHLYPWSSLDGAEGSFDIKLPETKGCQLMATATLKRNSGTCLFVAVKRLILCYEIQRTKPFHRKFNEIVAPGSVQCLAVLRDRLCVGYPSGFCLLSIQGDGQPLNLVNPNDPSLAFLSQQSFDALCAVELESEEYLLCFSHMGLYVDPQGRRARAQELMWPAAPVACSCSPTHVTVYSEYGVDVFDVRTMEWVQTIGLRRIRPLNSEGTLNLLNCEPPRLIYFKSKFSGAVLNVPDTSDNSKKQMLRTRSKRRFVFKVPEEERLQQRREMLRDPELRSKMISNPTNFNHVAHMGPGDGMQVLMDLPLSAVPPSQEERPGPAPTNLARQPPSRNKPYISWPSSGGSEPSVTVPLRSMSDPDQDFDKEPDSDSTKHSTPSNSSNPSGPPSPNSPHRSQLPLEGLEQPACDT
T4 sequence (P22607 23-806 K650E): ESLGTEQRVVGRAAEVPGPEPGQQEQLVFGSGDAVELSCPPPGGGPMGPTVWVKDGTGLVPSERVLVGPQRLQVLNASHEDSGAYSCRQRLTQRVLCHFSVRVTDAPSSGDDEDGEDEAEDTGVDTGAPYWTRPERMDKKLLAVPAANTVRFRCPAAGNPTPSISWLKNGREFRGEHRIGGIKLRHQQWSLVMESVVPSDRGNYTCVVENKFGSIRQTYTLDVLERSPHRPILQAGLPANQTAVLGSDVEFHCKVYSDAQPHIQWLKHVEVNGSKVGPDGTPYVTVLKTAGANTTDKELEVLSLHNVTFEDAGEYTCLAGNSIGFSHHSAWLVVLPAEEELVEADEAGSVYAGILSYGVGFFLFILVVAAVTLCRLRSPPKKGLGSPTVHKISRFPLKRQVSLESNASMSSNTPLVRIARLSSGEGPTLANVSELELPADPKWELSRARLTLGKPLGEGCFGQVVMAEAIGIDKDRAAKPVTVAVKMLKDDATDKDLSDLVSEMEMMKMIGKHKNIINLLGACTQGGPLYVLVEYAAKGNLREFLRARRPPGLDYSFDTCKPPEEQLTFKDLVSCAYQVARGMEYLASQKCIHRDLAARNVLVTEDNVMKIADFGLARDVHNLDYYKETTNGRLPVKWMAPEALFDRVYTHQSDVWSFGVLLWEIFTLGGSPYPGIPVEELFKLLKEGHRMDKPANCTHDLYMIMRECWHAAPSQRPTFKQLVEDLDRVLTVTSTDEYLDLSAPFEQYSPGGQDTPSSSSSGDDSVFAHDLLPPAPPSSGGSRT
T6 sequence (P49137 whole entry): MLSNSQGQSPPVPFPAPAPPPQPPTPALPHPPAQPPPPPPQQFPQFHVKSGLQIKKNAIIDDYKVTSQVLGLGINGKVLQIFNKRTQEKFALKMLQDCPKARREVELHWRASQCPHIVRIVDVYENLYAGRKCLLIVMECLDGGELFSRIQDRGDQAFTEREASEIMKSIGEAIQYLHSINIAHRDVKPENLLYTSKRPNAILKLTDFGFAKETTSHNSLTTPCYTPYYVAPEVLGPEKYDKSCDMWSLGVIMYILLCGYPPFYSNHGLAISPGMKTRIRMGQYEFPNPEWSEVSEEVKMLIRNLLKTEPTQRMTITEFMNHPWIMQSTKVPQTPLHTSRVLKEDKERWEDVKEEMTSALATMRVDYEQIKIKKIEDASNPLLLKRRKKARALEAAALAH
T7 sequence (Q16512 whole entry): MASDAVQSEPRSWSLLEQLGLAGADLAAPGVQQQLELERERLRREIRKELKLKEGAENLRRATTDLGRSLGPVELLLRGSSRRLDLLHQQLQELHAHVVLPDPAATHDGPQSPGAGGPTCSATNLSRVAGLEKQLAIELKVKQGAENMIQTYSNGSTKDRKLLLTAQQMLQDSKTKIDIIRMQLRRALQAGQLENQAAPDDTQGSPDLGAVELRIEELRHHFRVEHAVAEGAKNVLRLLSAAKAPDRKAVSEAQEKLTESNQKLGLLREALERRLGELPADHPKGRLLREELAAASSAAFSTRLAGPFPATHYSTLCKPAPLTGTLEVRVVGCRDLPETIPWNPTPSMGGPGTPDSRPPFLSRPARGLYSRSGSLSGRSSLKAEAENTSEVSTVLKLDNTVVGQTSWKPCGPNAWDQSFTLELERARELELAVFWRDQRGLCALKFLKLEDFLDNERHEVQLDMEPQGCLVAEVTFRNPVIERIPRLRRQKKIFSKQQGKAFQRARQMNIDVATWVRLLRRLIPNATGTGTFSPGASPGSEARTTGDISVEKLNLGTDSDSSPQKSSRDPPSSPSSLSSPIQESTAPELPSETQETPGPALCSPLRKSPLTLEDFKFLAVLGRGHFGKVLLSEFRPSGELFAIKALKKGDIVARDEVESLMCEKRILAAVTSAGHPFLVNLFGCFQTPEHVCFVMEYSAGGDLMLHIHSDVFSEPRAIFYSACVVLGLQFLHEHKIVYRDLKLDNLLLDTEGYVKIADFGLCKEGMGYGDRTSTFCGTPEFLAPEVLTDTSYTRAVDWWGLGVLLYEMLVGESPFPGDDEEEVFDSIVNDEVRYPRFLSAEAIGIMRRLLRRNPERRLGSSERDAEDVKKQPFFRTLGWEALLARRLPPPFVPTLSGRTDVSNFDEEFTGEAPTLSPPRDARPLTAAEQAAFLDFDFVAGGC
T5 sequence (O95819 whole entry): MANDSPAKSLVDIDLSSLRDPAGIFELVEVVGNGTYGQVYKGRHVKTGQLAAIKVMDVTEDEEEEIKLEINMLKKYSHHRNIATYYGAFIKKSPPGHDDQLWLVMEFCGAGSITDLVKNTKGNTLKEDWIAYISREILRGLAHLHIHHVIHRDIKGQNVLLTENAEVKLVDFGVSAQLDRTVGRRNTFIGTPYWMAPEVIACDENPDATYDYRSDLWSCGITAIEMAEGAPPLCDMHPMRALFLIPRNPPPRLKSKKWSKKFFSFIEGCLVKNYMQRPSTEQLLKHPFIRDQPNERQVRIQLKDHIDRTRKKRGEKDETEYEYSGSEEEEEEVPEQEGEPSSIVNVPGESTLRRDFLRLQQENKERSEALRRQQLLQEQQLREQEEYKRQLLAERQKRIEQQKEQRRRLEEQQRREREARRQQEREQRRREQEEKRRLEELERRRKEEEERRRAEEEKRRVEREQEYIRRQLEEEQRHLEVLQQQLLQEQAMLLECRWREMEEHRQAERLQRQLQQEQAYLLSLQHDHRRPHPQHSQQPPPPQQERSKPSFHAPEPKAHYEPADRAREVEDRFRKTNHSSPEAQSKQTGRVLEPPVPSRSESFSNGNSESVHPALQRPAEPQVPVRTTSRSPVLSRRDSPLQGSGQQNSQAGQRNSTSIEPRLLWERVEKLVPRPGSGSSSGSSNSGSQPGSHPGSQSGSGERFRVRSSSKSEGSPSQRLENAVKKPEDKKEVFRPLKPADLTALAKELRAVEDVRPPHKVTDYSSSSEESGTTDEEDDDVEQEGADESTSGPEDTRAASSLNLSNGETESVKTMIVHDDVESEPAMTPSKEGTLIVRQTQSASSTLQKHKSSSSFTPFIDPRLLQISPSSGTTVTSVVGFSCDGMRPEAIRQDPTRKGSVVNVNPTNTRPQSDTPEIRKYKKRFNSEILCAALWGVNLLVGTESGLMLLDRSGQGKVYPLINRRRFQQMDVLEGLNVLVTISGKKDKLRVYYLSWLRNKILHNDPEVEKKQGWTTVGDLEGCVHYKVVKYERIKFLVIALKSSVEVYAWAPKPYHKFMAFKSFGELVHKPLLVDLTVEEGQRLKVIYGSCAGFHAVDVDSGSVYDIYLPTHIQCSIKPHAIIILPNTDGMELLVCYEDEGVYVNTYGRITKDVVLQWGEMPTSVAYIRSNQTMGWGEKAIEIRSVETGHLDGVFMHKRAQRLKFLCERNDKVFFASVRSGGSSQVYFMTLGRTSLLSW

By inhibition is commonly meant the relative decrease from the control value, in per cent. `COc1ccc2c(c1OC)c(=O)n1c3ccc(O)cc3c3ccnc2c31` [MW01, 5-Hydroxy-10,11-dimethoxy-9H-benzo[c]indolo[3,2,1-ij][1,5]naphthyridin-9-one]: the inhibition at 1 µM is -3% at CAMK4 (CaMKIV); 0% on CDC42 BPB (MRCKB); 5% on EPHB4; 6% on FGFR3 K650E; 64% on MAP4K4 (HGK); 3% at MAPKAPK2. Further, the inhibition at 1 µM at PKN1 (PRK1) was found to be 9%; at ZAP70, 12%. Also, the inhibition at 10 µM on CAMK4 (CaMKIV) amounted to 16%; at CDC42 BPB (MRCKB), 5%; on EPHB4 it was 7%; on FGFR3 K650E, 16%; at MAP4K4 (HGK), 80%; at MAPKAPK2 it was 3%. Further, the inhibition at 10 µM on PKN1 (PRK1) and at ZAP70 was 16% throughout.

For `COc1ccc2cc3c(N)nn(C(=O)c4cccc(N(C)C)c4)c3nc2c1` [MW05, (3-Amino-7-methoxypyrazolo[3,4-b]quinolin-1-yl)-[3-(dimethylamino)phenyl]methanone], the inhibition at 1 µM is 2% on CAMK4 (CaMKIV); 5% on CDC42 BPB (MRCKB); -3% on EPHB4; 8% on FGFR3 K650E; 9% at MAP4K4 (HGK); 4% at MAPKAPK2. Further, the inhibition at 1 µM on PKN1 (PRK1) and at ZAP70 was 15% each time. Moreover, the inhibition at 10 µM at CAMK4 (CaMKIV) was -9%; at CDC42 BPB (MRCKB), -6%; at EPHB4, 2%; on FGFR3 K650E, -3%; on MAP4K4 (HGK) it was 11%; on MAPKAPK2 it was -6%. The inhibition at 10 µM was found to be 4% on PKN1 (PRK1) and 11% at ZAP70.

The record behind these values is patent EP4467141A1, “PYRAZOLO-QUINOLINES AS SELECTIVE INHIBITORS OF GENOTOXIC STRESS-INDUCED IKK/NF- KB PATHWAYS FOR CANCER THERAPY” (Max-Delbrück-Centrum für Molekulare Medizin in der …, priority 2023, dated 2024).
